The numbers were not newly measured in patent US20150202321A1, “COMPOSITIONS COMPRISING CHITOSAN-DRUG CONJUGATES AND METHODS OF MAKING AND USING THE SAME” (NEWGEN BIOPHARMA CORP., priority 2012, published 2015), which cites them from elsewhere.

Counter-ions that a name gives are not always drawn. Like-named read-outs stand apart in the source and are kept apart here.

For data set [1] the following is noted: oral.
Assay in data set [2]: not given
This is another data set of the same source.

For `CC(C)c1nc(N(C)S(C)(=O)=O)nc(-c2ccc(F)cc2)c1/C=C/[C@@H](O)C[C@@H](O)CC(=O)O` [rosuvastatin], under “evening versus morning”, the “AUC following evening or morning drug administration” value was “does not differ”. Where the note is “man”, the absolute bioavailability entry is listed as “approximately 20%” and the elimination half life is around 19 h.
Take `CC(C)c1c(C(=O)Nc2ccccc2)c(-c2ccccc2)c(-c2ccc(F)cc2)n1CC[C@@H](O)C[C@@H](O)CC(=O)O` [AT, [R—(R/,R/)]-2-(4-fluorophenyl)-b,d-dihydroxy-5-(1-methylethyl)-3-phenyl-4-[(phenylamino)carbonyl]-1H-pyrrole-1-heptanoic acid, calcium salt (2:1) trihydrate]: the “systemic availability for HMG-CoA reductase activity” value in data set [1] is listed as “approximately 30%”.
Regarding `CC(=O)O[C@@]12CO[C@@H]1C[C@H](O)[C@@]1(C)C(=O)[C@H](O)C3=C(C)[C@@H](OC(=O)[C@H](O)[C@@H](NC(=O)OC(C)(C)C)c4ccccc4)C[C@@](O)([C@@H](OC(=O)c4ccccc4)[C@H]21)C3(C)C` [docetaxel], the bioavailability in data set [2] (intravenous administration) is reported as 100%. The oral bioavailability in data set [2] (co-administered with cyclosporine) is given as 90%±44%; in data set [2] (on its own), 8%±6%.
